{"source": "ChEMBL document CHEMBL4311992", "about": "“Discovery of 3-(((9H-purin-6-yl)amino)methyl)-4,6-dimethylpyridin-2(1H)-one derivatives as novel tubulin polymerization inhibitors for treatment of cancer” (Eur J Med Chem, 2019)", "key": {"[1]": {"molecular_target": "Protein kinase C zeta type (Homo sapiens) (UniProt Q05513)", "sequence (Q05513 whole entry)": "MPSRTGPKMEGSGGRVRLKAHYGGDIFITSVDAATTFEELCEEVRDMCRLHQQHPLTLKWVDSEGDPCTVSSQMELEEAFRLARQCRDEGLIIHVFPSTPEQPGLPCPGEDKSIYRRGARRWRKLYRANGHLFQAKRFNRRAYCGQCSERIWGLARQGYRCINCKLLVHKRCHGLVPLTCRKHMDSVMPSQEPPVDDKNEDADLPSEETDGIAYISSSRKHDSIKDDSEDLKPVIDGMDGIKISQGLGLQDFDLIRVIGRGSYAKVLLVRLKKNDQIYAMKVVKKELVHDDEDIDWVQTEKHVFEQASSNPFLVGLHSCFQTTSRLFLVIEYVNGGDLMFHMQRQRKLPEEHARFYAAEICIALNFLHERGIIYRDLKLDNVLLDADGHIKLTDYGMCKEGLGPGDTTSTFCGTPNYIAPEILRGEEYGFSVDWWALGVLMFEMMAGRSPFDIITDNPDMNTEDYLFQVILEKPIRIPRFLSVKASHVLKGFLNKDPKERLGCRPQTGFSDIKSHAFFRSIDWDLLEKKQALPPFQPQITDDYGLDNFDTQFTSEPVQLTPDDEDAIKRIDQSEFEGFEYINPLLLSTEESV", "assay": "Inhibition of recombinant human PKCzeta (2 to end residues) assessed as residual activity at 10 uM using ERMRPRKRQGSVRRRV as substrate measured after 40 mins in presence of [gamma33P]ATP by scintillation counting method"}, "[2]": {"molecular_target": "Protein kinase C beta type (Homo sapiens) (UniProt P05771)", "assay": "Inhibition of recombinant human PKCbeta1 (2 to end residues) assessed as residual activity at 10 uM using histone H1 as substrate measured after 40 mins in presence of [gamma33P]ATP by scintillation counting method"}, "[3]": {"system": "Serine/threonine-protein kinase Nek4 (Homo sapiens), P51957 [P225A]", "assay": "Inhibition of recombinant full-length human NEK4 P225A mutant assessed as residual activity at 10 uM using myelin basic protein as substrate measured after 40 mins in presence of [gamma33P]ATP by scintillation counting method"}, "[4]": {"molecular_target": "Calcium/calmodulin-dependent protein kinase type 1G (Homo sapiens) (UniProt Q96NX5)", "sequence (Q96NX5 whole entry)": "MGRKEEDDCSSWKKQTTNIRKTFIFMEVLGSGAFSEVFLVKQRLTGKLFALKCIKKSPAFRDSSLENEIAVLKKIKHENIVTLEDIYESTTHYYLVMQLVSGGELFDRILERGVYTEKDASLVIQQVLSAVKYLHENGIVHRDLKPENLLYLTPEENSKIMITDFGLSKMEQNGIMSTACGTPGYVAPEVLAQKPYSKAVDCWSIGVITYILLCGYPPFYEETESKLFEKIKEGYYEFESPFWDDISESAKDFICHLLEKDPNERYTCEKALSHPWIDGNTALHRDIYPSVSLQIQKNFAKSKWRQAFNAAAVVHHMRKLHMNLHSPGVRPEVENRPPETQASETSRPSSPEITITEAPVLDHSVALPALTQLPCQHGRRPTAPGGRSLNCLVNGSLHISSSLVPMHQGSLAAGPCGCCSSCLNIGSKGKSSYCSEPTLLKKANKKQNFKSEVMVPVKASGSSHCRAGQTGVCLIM", "assay": "Inhibition of human CaMK1gamma", "set-up": "scale not given: the % may be the effect or the level left"}, "[5]": {"molecular_target": "Cyclin-dependent kinase-like 1 (Homo sapiens) (UniProt Q00532)", "sequence (Q00532 whole entry, the tested form may be a part)": "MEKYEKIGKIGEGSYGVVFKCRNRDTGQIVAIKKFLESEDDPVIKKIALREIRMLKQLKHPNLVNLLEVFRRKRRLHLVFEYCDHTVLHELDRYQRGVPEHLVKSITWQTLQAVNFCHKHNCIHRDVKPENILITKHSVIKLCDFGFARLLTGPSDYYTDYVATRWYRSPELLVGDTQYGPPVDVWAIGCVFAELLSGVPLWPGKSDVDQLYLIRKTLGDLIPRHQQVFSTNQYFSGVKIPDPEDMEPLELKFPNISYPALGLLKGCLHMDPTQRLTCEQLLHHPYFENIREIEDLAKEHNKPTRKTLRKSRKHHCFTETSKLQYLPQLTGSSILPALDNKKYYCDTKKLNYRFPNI", "assay": "Inhibition of recombinant human CDKL1 (1 to 303 residues) assessed as residual activity at 10 uM using RRRFRPASPLRGP as substrate measured after 120 mins in presence of [gamma33P]ATP by scintillation counting method"}, "[6]": {"molecular_target": "Tau-tubulin kinase 2 (Homo sapiens) (UniProt Q6IQ55)", "assay": "Inhibition of human TTBK2 (1 to 331 residues) using Casein as substrate measured after 40 mins in presence of [gamma33P]ATP by scintillation counting method", "set-up": "scale not given: the % may be the effect or the level left"}, "[7]": {"system": "Tyrosine-protein kinase Blk (Homo sapiens), P51451 [UNDEFINED MUTATION]", "assay": "Inhibition of full-length recombinant human BLK M287V mutant assessed as residual activity at 10 uM using poly(Glu, Tyr) 4:1 as substrate measured after 40 mins in presence of [gamma33P]ATP by scintillation counting method"}, "Tubulin (Homo sapiens)": {"molecular_target": "Tubulin (Homo sapiens) (UniProt P68371+Q9H4B7+P0DPH7+P68366+Q13509+Q71U36+P04350+Q3ZCM7+P07437+P68363+Q9BQE3+Q6PEY2+Q13885+Q9BVA1+Q9BUF5)", "assay": "Disruption of microtubule network in human HCT116 cells assessed as microtubule disorganization at 50 nM for 18 hrs by FITC/DAPI staining-based confocal microscopic analysis", "format": "cell-based"}, "Mus musculus": {"species": "Mus musculus", "assay": "Inhibition of recombinant mouse ARG M982V/A562 mutant (27 to end residues) assessed as residual activity at 10 uM using EAIYAAPFAKKK as substrate measured after 40 mins in presence of [gamma33P]ATP by scintillation counting method"}, "[8]": {"system": "Calcium/calmodulin-dependent protein kinase kinase 2 (Homo sapiens), Q96RR4 [T85S]", "sequence (Q96RR4 whole entry T85S)": "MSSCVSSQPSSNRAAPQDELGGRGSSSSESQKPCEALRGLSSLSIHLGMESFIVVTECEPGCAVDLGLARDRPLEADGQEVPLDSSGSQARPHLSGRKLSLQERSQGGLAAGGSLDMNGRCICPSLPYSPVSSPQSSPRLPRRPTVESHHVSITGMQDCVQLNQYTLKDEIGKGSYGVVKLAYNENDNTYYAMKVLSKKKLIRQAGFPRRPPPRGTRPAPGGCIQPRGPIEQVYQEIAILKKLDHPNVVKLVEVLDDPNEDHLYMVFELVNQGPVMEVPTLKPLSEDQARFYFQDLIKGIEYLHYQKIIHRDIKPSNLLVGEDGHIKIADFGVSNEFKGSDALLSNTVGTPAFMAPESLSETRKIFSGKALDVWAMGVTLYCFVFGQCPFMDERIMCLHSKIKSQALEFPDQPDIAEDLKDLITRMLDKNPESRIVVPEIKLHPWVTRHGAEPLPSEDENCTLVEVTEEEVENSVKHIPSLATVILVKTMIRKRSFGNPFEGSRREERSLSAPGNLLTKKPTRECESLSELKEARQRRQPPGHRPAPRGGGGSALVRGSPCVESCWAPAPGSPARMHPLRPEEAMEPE", "assay": "Inhibition of recombinant full-length human CAMKk2 T85S mutant assessed as residual activity at 10 uM using calmodulin as substrate measured after 40 mins in presence of [gamma33P]ATP by scintillation counting method"}, "[9]": {"molecular_target": "Cyclin-dependent kinase 2/cyclin E1 (Homo sapiens) (UniProt P24864+P24941)", "assay": "Inhibition of recombinant full-length human CDK2/cyclinE assessed as residual activity at 10 uM using histone H1 as substrate measured after 40 mins in presence of [gamma33P]ATP by scintillation counting method", "format": "protein-complex assay"}, "HCT-116 [10]": {"system": "HCT-116", "assay": "Induction of cell cycle arrest in human HCT116 cells assessed as accumulation at G2/M phase after 24 hrs by propidium iodide-staining based flow cytometry", "format": "functional"}, "HCT-116 [11]": {"system": "HCT-116", "assay": "Induction of apoptosis in human HCT116 cells assessed as viable cells at 25 nM measured after 48 hrs by Annexin V-FITC/propidium iodide staining-based flow cytometry (reference value: 94.5%)", "format": "functional", "conditions": "HCT-116, 48 h, read-out: Activity"}, "HCT-116 [12]": {"system": "HCT-116", "assay": "Induction of apoptosis in human HCT116 cells assessed as increase in cleaved PARP expression up to 200 nM measured after 48 hrs by Western blot analysis", "format": "functional, cell-based"}, "HCT-116 [13]": {"system": "HCT-116", "assay": "Antitumor activity against human HCT116 cells xenografted in nude BALB/c mouse assessed as reduction in tumor weight at 80 mg/kg, po administered once daily for 4 weeks measured every 3 days during compound dosing", "format": "functional, organism-based"}, "[14]": {"assay": "Toxicity in nude BALB/c mouse xenografted with human HCT116 cells assessed as change in body weight at 40 mg/kg, po administered once daily for 4 weeks measured every 3 days during compound dosing", "format": "organism-based", "conditions": "in vivo"}, "[15]": {"molecular_target": "Serine/threonine-protein kinase DCLK3 (Homo sapiens) (UniProt Q9C098)", "assay": "Inhibition of recombinant human DCAMKL3 (345 to end residues) assessed as residual activity at 10 uM using KKLNRTLSFAEPG as substrate measured after 40 mins in presence of [gamma33P]ATP by scintillation counting method"}, "[16]": {"molecular_target": "Dual specificity tyrosine-phosphorylation-regulated kinase 2 (Homo sapiens) (UniProt Q92630)", "assay": "Inhibition of recombinant full-length human DYRK2 assessed as residual activity at 10 uM using casein as substrate measured after 40 mins in presence of [gamma33P]ATP by scintillation counting method"}, "[17]": {"molecular_target": "Beta-adrenergic receptor kinase 1 (Homo sapiens) (UniProt P25098)", "sequence (P25098 whole entry)": "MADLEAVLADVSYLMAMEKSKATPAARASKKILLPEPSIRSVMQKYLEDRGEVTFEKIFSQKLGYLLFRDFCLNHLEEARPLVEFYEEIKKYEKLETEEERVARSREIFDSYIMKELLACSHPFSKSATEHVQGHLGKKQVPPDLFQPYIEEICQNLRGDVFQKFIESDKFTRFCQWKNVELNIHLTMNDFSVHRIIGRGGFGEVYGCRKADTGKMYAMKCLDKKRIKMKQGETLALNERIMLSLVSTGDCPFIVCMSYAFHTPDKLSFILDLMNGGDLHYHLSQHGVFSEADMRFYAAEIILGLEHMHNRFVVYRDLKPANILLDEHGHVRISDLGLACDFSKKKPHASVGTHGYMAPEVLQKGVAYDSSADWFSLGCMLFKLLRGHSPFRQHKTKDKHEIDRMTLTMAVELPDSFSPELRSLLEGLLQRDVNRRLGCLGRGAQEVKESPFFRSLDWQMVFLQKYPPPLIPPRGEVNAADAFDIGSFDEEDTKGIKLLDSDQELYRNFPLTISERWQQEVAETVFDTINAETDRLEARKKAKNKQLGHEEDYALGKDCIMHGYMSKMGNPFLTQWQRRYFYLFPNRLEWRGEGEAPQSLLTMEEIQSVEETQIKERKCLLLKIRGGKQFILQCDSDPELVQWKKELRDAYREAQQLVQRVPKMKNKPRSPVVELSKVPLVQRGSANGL", "assay": "Inhibition of recombinant full-length human GRK2 assessed as residual activity at 10 uM using casein as substrate measured after 40 mins in presence of [gamma33P]ATP by scintillation counting method"}, "[18]": {"molecular_target": "G protein-coupled receptor kinase 3 (Homo sapiens) (UniProt P35626)", "sequence (P35626 whole entry)": "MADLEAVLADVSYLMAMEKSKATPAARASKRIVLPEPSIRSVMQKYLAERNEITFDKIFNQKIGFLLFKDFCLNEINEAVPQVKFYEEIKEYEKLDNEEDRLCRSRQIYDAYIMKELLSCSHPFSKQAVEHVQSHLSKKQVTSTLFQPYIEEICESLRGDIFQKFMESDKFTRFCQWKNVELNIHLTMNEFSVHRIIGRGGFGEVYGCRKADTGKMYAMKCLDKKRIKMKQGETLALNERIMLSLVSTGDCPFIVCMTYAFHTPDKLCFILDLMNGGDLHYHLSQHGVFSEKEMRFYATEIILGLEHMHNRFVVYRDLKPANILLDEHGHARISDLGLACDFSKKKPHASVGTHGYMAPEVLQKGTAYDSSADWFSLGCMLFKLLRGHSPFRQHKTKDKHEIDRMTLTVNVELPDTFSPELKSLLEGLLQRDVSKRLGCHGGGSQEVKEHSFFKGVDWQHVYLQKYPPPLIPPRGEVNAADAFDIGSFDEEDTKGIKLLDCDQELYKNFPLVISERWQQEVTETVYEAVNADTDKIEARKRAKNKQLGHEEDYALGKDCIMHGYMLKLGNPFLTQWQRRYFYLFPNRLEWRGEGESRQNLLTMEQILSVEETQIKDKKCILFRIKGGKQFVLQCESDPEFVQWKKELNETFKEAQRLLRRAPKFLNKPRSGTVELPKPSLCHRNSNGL", "assay": "Inhibition of recombinant full-length human GRK3 assessed as residual activity at 10 uM using casein as substrate measured after 40 mins in presence of [gamma33P]ATP by scintillation counting method"}, "[19]": {"molecular_target": "Mitogen-activated protein kinase kinase kinase 11 (Homo sapiens) (UniProt Q16584)", "sequence (Q16584 whole entry, looked up)": "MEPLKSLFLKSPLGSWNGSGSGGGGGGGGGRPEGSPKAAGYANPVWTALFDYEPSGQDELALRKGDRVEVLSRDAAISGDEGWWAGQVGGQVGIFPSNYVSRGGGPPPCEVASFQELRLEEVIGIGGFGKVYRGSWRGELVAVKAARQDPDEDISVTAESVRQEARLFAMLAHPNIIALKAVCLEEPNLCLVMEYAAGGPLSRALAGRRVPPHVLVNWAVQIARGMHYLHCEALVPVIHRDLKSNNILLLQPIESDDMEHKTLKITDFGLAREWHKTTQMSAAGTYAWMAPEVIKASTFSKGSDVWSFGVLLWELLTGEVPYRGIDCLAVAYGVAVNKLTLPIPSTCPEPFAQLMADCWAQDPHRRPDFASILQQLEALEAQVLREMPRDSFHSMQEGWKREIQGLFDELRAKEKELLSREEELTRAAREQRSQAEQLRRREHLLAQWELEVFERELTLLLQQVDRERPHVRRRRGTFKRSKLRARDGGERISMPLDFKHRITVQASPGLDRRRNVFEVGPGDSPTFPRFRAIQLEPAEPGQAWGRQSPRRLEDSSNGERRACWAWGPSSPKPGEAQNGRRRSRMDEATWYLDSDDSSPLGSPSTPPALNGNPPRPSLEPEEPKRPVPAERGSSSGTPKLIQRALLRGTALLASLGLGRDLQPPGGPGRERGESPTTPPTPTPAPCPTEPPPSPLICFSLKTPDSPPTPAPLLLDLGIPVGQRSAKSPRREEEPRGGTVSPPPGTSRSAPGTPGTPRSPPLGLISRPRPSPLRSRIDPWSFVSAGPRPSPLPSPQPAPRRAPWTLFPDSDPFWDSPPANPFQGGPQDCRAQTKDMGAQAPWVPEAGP", "assay": "Inhibition of human MLK3 assessed as residual activity at 10 uM by radiometric method"}, "[20]": {"molecular_target": "MAPK/MAK/MRK overlapping kinase (Homo sapiens) (UniProt Q9UQ07)", "sequence (Q9UQ07 whole entry, the tested form may be a part)": "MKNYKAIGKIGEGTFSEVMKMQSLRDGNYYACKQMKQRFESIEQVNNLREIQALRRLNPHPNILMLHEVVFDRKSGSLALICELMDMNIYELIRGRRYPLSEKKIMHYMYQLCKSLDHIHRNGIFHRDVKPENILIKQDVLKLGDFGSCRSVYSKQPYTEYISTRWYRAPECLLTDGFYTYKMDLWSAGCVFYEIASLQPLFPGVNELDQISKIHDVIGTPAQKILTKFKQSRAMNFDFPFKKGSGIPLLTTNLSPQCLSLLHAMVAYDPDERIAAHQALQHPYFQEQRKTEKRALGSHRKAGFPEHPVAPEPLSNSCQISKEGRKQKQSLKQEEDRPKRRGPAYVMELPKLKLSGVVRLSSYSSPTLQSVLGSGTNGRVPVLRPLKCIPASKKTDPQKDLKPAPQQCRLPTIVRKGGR", "assay": "Inhibition of recombinant human MOK (1 to 343 residues) assessed as residual activity at 10 uM using RSRSRSRSRSRSRSR as substrate measured after 40 mins in presence of [gamma33P]ATP by scintillation counting method"}, "[21]": {"molecular_target": "Serine/threonine-protein kinase MRCK beta (Homo sapiens) (UniProt Q9Y5S2)", "assay": "Inhibition of recombinant human MRCKbeta (1 to 473 residues) assessed as residual activity at 10 uM using KKRNRTLTV as substrate measured after 40 mins in presence of [gamma33P]ATP by scintillation counting method"}, "[22]": {"molecular_target": "Serine/threonine-protein kinase 4 (Homo sapiens) (UniProt Q13043)", "assay": "Inhibition of recombinant full-length human MST1 assessed as residual activity at 10 uM using KKSRGDYMTMQIG as substrate measured after 40 mins in presence of [gamma33P]ATP by scintillation counting method"}, "[23]": {"assay": "Toxicity in nude BALB/c mouse assessed as change in albumin level at 40 to 80 mg/kg, po once daily for 4 weeks measured post-last dose", "format": "organism-based", "conditions": "in vivo, 672 h"}}, "note": "Activity calls are given as the source filed them. The rule behind the calls is not given here."}
{"smiles": "Cc1cc(C)c(CNc2nc(Cl)nc3c2ncn3C2CCCC2)c(=O)[nH]1", "values": [{"measurement": "Activity", "setting": "[1]", "value": 99.5, "unit": "%"}, {"measurement": "Activity", "setting": "[2]", "value": 96, "unit": "%"}, {"measurement": "Activity", "setting": "[3]", "value": 104, "unit": "%"}, {"measurement": "Activity", "setting": "[4]", "value": 126, "unit": "%"}, {"measurement": "Activity", "setting": "[5]", "value": 122, "unit": "%"}, {"measurement": "Activity", "setting": "[6]", "value": 104, "unit": "%"}, {"measurement": "Activity", "setting": "[7]", "value": 115, "unit": "%"}, {"measurement": "Activity", "setting": "Tubulin (Homo sapiens)", "value": "Active"}, {"measurement": "Activity", "setting": "Mus musculus", "value": 106, "unit": "%"}, {"measurement": "Activity", "setting": "[8]", "value": 99.5, "unit": "%"}, {"measurement": "Activity", "setting": "[9]", "value": 115, "unit": "%"}, {"measurement": "Activity", "setting": "HCT-116 [10]", "value": "Dose-dependent effect"}, {"measurement": "viability at 0.025 µM", "setting": "HCT-116 [11]", "value": 95.9, "unit": "%"}, {"measurement": "Activity", "setting": "HCT-116 [12]", "value": "Active"}, {"measurement": "Activity", "setting": "HCT-116 [13]", "value": "Active"}, {"measurement": "Activity", "setting": "[14]", "value": "Non-Toxic"}, {"measurement": "Activity", "setting": "[15]", "value": 110, "unit": "%"}, {"measurement": "Activity", "setting": "[16]", "value": 113, "unit": "%"}, {"measurement": "Activity", "setting": "[17]", "value": 102, "unit": "%"}, {"measurement": "Activity", "setting": "[18]", "value": 100, "unit": "%"}, {"measurement": "Activity", "setting": "[19]", "value": 104, "unit": "%"}, {"measurement": "Activity", "setting": "[20]", "value": 104, "unit": "%"}, {"measurement": "Activity", "setting": "[21]", "value": 112, "unit": "%"}, {"measurement": "Activity", "setting": "[22]", "value": 122, "unit": "%"}, {"measurement": "Activity", "setting": "[23]", "value": "Non-Toxic"}]}
